Patent US8580812B2, “Heteroaryl amide analogues as P2X7 antagonists” (H. Lundbeck A/S, priority 2007, dated 2013)

What follows are compounds tested against T1, P2X7 (Homo sapiens, UniProt Q99572) (assay: High Throughput P2X7 Calcium Mobilization Assay (Example 4A), antagonist activity). Conditions: SH-SY5Y cells, 50% decrease in fluorescence response of cells exposed to 80 μM BzATP.
T1 construct: host or cells: SH-SY5Y
T1 sequence (Q99572 1-595): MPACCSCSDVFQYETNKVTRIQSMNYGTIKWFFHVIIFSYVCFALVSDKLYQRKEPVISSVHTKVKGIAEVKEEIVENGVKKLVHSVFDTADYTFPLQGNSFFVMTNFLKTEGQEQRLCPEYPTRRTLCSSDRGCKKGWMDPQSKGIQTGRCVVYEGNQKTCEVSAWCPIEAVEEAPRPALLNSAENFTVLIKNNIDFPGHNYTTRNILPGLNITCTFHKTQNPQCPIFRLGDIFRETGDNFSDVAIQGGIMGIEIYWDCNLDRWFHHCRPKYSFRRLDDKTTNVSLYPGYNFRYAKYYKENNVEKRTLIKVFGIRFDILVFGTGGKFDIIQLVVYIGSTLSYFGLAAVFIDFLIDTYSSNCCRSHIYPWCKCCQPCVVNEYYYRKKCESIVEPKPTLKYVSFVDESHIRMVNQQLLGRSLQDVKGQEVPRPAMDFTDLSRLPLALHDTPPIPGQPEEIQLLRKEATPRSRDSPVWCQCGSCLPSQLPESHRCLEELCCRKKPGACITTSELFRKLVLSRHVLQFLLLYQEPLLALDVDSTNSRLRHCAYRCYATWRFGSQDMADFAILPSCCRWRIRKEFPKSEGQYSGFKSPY
Assay type: cell-based
Protocol: A. High Throughput P2X7 Calcium Mobilization Assay
SH-SY5Y cells, ATCC Number CRL-2266, (American Type Culture Collection, Manassas, Va.) are cultured under DMEM/High medium supplemented with 10% FBS, and 10 mM HEPES (Invitrogen Corp., Carlsbad, Calif.) in 5% CO2 and at 37° C. One day prior to the experiment, cells are plated at a density of 100,000 cells/well in a 96 well black/clear TC plate (Corning® Costar®, Sigma-Aldrich Co., St. Louis, Mo.). At the beginning of the experiment, the culture medium is removed and cells are incubated with 50 μL of 2.3 μM Fluo-4 AM dye (Invitrogen Corp.) in the assay solution (5 mM KCl, 9.6 mM NaH2PO4.H2O, 25 mM HEPES, 280 mM Sucrose, 5 mM Glucose, and 0.5 mM CaCl2; pH is adjusted to 7.4 with NaOH) for an hour at 37° C. After one hour dye incubation, wells are rinsed once with 50 μL assay solution, and are then incubated for an hour at room temperature with 100 μL assay solution containing the test compound. The final concentration of test compound generally ranges from 1 to 2500 nM; for positive control cells, no test compound is added. After the one hour incubation, plates are transferred to a FLIPR^TETRA instrument (Molecular Devices, Sunnyvale, Calif.) for calcium mobilization analysis.
For determination of antagonist activity, 50 μL of P2X7 agonist (2′(3′)-O-(4-benzoyl-benzoyl)adenosine 5′-triphosephate (BzATP; Sigma-Aldrich) in the assay solution is transferred using the FLIPR into the plate, such that the final agonist concentration is 80 μM (about EC50). In negative control cells, 50 μL of assay solution without agonist is added at this stage. The peak fluorescence signal over a 2 minute period is then measured.
First, the average maximum relative fluorescent unit (RFU) response from the negative control wells (no agonist) is subtracted from the maximum response detected for each of the other experimental wells. Second, average maximum RFU response is calculated for the positive control wells (agonist wells). Then, percent inhibition for each compound tested is calculated using the equation: Percent Inhibition=100−100×(Peak Signal in Test Cells/Peak Signal in Control Cells) The % inhibition data is plotted as a function of test compound concentration and test compound IC50 is determined using, for example, KALEIDAGRAPH software (Synergy Software, Reading, Pa.) best fit of the data to the equation: y=m1*(1/(1+(m2/m0)^m3)) where y is the percent inhibition, m0 is […], m1 is the maximum RFU, m2 corresponds to the test compound IC50 (the concentration required to provide a 50% decrease, relative to the response observed in the presence of agonist and without antagonist) and m3 is the Hill coefficient.

Compound | IC50 [nM]
O=C(NCC12CC3CC(CC(C3)C1)C2)c1cccn2nc(C(=O)N3CCOCC3)cc12 [Compound 22, N-(adamantan-1-ylmethyl)-2-(morpholin-4-ylcarbonyl)pyrazolo [1,5-a]pyridine-4-carboxamide] | ≤ 2000
N[C@@H]1CCN(C(=O)c2cc3c(C(=O)NCC(CC4CCCCC4)c4ccccc4)cccn3n2)C1 (stereo partly drawn) [Compound 72, 2-{[(3R)-3-aminopyrrolidin-1-yl]carbonyl}-N-(3-cyclohexyl-2-phenylpropyl)pyrazolo [1,5-a]pyridine-4-carboxamide] | ≤ 2000
CN(C(=O)c1cc2c(C(=O)NCC34CC5CC(CC(C5)C3)C4)cccn2n1)c1ccncc1 [Compound 39, 4-N-(adamantan-1-ylmethyl)-2-N-methyl-2-N-pyridin-4-ylpyrazolo[1,5-a]pyridine-2,4-dicarboxamide] | ≤ 2000
O=C(Cc1cc2c(C(=O)NCC34CC5CC(CC(C5)C3)C4)cccn2n1)NCC(F)(F)F [Compound 61, N-(adamantan-1-ylmethyl)-2-{2-oxo-2-[(2,2,2-trifluoroethyl)amino]ethyl}pyrazolo[1,5-a]pyridine-4-carboxamide] | ≤ 2000
CN(C(=O)c1cc2c(C(=O)NCC34CC5CC(CC(C5)C3)C4)cccn2n1)c1ccccn1 [Compound 19, 4-N-(adamantan-1-ylmethyl)-2-N-methyl-2-N-pyridin-2-ylpyrazolo[1,5-a]pyridine-2,4-dicarboxamide] | ≤ 2000
CN(CCF)C(=O)c1cc2c(C(=O)NCC3(c4ccc(Cl)cc4)CCCCC3)cccn2n1 [Compound 85, 4-N-{[1-(4-chlorophenyl)cyclohex-yl]methyl}-2-N-(2-fluoroethyl)-2-N-methylpyrazolo[1,5-a]pyridine-2,4-dicarboxamide] | ≤ 2000
N#Cc1ccc(C(=O)c2ccc3c(C(=O)NCC45CC6CC(CC(C6)C4)C5)cccn23)cc1 [Compound 109, N-(adamantan-1-ylmethyl)-3-(4-cyanobenzoyl)indolizine-8-carboxamide] | ≤ 2000
O=C(NCC1(c2ccc(Cl)cc2)CCCCC1)c1cccn2nc(C(Cc3ccccc3)C(=O)O)cc12 (stereo not shown) [Compound 104, 2-[4-({[1-(4-chlorophenyl)cyclohex-yl]methyl}carbamoyl)pyrazolo[1,5-a]pyridin-2-yl]-3-phenyl propanoic acid] | ≤ 2000
COCCN(C)C(=O)c1cc2c(C(=O)NCC34CC5CC(CC(C5)C3)C4)cccn2n1 [Compound 18, 4-N-(adamantan-1-ylmethyl)-2-N-(2-methoxyethyl)-2-N-methylpyrazolo[1,5-a]pyridine-2,4-dicarboxamide] | ≤ 2000
NC(=O)c1ccc(C(=O)c2ccc3c(C(=O)NCC45CC6CC(CC(C6)C4)C5)cccn23)cc1 [Compound 110, N-(adamantan-1-ylmethyl)-3-(4-carbamoylbenzoyl) indolizine-8-carboxamide] | ≤ 2000
O=C(O)CC(Cc1ccccc1)c1cc2c(C(=O)NCC34CC5CC(CC(C5)C3)C4)cccn2n1 (stereo not shown) [Compound 107, 3-{4-[(adamantan-1-ylmethyl)carbamoyl]pyrazolo[1,5-a]pyridin-2-yl}-4-phenylbutanoic acid] | ≤ 2000
O=C(O)c1ccc(-c2cc3c(C(=O)NCC45CC6CC(CC(C6)C4)C5)cccn3c2)cc1 [Compound 108, 4-{8-[(adamantan-1-ylmethyl)carbamoyl]indolizin-2-yl}benzoic acid] | ≤ 2000
N[C@@H]1CCN(C(=O)c2cc3c(C(=O)NCC4(c5ccc(Cl)cc5)CCCCC4)cccn3n2)C1 [Compound 90, 2-{[(3R)-3-aminopyrrolidin-1-yl]carbonyl}-N-{[1-(4-chlorophenyl)cyclohex-yl]methyl}pyrazolo[1,5-a]pyridine-4-carboxamide] | ≤ 2000
N[C@@H]1CCCN(C(=O)c2cc3c(C(=O)NCC45CC6CC(CC(C6)C4)C5)cccn3n2)C1 [Compound 17, N-(adamantan-1-ylmethyl)-2-{[(3R)-3-aminopiperidin-1-yl]carbonyl}pyrazolo [1,5-a]pyridine-4-carboxamide] | ≤ 2000
CN(Cc1ccccn1)C(=O)c1cc2c(C(=O)NCC34CC5CC(CC(C5)C3)C4)cccn2n1 [Compound 50, 4-N-(adamantan-1-ylmethyl)-2-N-methyl-2-N-(pyridin-2-ylmethyl)pyrazolo[1,5-a]pyridine-2,4-dicarboxamide] | ≤ 2000
O=C(NCC(F)(F)F)c1cc2c(C(=O)NCC34CC5CC(CC(C5)C3)C4)cccn2n1 [Compound 64, 4-N-(adamantan-1-ylmethyl)-2-N-(2,2,2-trifluoroethyl)pyrazolo [1,5-a]pyridine-2,4-dicarboxamide] | ≤ 2000

Further lines, results first:

IC50 [nM] | Compound
≤ 2000 | O=C(Cc1cc2c(C(=O)NCC34CC5CC(CC(C5)C3)C4)cccn2n1)NCCF [Compound 59, N-(adamantan-1-ylmethyl)-2-{2-[(2-fluoroethyl)amino]-2-oxoethyl}pyrazolo[1,5-a]pyridine-4-carboxamide]
≤ 2000 | CCOC(=O)CN(C)Cc1cc2c(C(=O)NCC34CC5CC(CC(C5)C3)C4)cccn2n1 [Compound 29, ethyl N-({4-[(adamantan-1-ylmethyl)carbamoyl]pyrazolo[1,5-a]pyridin-2-yl}methyl)-N-methylglycinate]
≤ 2000 | CN(C(=O)c1cc2c(C(=O)NCC34CC5CC(CC(C5)C3)C4)cccn2n1)C1CCOCC1 [Compound 37, 4-N-(adamantan-1-ylmethyl)-2-N-methyl-2-N-(tetrahydro-2H-pyran-4-yl)pyrazolo[1,5-a]pyridine-2,4-dicarboxamide]
≤ 2000 | CC(C)CC(CNC(=O)c1cccn2nc(C(=O)N3CC[C@@H](N)C3)cc12)c1ccc(Cl)cc1 (stereo partly drawn) [Compound 71, 2-{[(3R)-3-aminopyrrolidin-1-yl]carbonyl}-N-[2-(4-chlorophenyl)-4-methylpentyl]pyrazolo [1,5-a]pyridine-4-carboxamide]
≤ 2000 | CN(Cc1ccccc1F)C(=O)c1cc2c(C(=O)NCC34CC5CC(CC(C5)C3)C4)cccn2n1 [Compound 65, 4-N-(adamantan-1-ylmethyl)-2-N-(2-fluorobenzyl)-2-N-methylpyrazolo[1,5-a]pyridine-2,4-dicarboxamide]
≤ 2000 | O=C(CC12CC3CC(CC(C3)C1)C2)Nc1cccn2nc(C(=O)N3CCn4cncc4C3)cc12 [Compound 97, 2-adamantan-1-yl-N-[2-(5,6-dihydroimidazo[1,5-a]pyrazin-7(8H)-ylcarbonyl)pyrazolo [1,5-a]pyridin-4-yl]acetamide]
≤ 2000 | CN(Cc1cccc(F)c1)C(=O)c1cc2c(C(=O)NCC34CC5CC(CC(C5)C3)C4)cccn2n1 [Compound 66, 4-N-(adamantan-1-ylmethyl)-2-N-(3-fluorobenzyl)-2-N-methylpyrazolo[1,5-a]pyridine-2,4-dicarboxamide]
≤ 2000 | CC(C)CC(CNC(=O)c1cccn2nc(C(=O)N3CC[C@@H](N)C3)cc12)c1ccccc1 (stereo partly drawn) [Compound 45, 2-{[(3R)-3-aminopyrrolidin-1-yl]carbonyl}-N-(4-methyl-2-phenylpentyl)pyrazolo [1,5-a]pyridine-4-carboxamide]
≤ 2000 | CN(CC(F)F)C(=O)Cc1cc2c(C(=O)NCC34CC5CC(CC(C5)C3)C4)cccn2n1 [Compound 78, N-(adamantan-1-ylmethyl)-2-{2-[(2,2-difluoroethyl)(methyl)amino]-2-oxoethyl}pyrazolo[1,5-a]pyridine-4-carboxamide]
